From patent US20260166039A1 (SCHRÖDINGER, INC., priority 2022, published 2026)
pIC50: −log10 of the molar value.

Each molecule was assayed against T1, Wee1 kinase domain (Homo sapiens, UniProt P30291) (assay: Wee1 Kinase Biochemical Assay (ADP-Glo)). Details: Wee1 kinase domain, 15 uM ATP, ADP-Glo.
T1 construct: Wee1 kinase domain was purchased from Carna (catalog #05-177); purchased Carna 05-177
Outline: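 ADP-Glo detection of ADP produced after 4 h at 25° C by 1 nM Wee1 kinase domain on 2 ng/mL poly(Lys,Tyr 4:1) with 15 uM ATP. Buffer: 40 mM Tris-HCl, 20 mM MgCl2, 0.1 mg/mL BSA, 2 mM DTT. Inhibition is relative to DMSO (high) and saturating Wee1 inhibitor (low) controls.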

T1 sequence (P30291 299-569 limits assumed): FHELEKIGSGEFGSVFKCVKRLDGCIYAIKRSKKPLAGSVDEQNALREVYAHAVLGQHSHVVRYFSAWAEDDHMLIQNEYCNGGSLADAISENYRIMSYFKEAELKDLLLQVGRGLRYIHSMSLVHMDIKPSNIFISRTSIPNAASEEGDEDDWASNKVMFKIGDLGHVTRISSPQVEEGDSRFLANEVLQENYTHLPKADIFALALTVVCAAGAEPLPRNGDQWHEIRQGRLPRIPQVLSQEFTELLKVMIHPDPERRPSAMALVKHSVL

pIC50 | SMILES
6.00 to 7.00 | C[C@H]1COC(=O)N1c1cccc(N2c3nc(Nc4ccc(O[C@H]5CCNC5)cc4)ncc3[C@]3(C)COC(C)(C)C[C@H]23)n1 (single isomer, unassigned) [Example 328]
7.00 to 8.00 | Cc1cc(Nc2ncc3c(n2)N(c2cccc(C(C)(C)O)n2)[C@H]2CC(C)(C)OC[C@@]32C)ccc1C1CCN(C)CC1 (single isomer, unassigned) [Example 7]
7.00 to 8.00 | C[C@H]1COC(=O)N1c1cccc(N2c3nc(Nc4ccc(O[C@@H]5CCN(C)C5)cc4)ncc3[C@]3(C)COC(C)(C)C[C@H]23)n1 (single isomer, unassigned) [Example 330]
7.00 to 8.00 | CC(=O)Nc1ncc2c(n1)N(c1cccc(N=S(C)(C)=O)n1)[C@@H]1CC(C)(C)OC[C@]21C (single isomer, unassigned) [Example 398]
6.00 to 7.00 | CC1(C)C[C@@H]2N(c3cccc(N=S(C)(C)=O)n3)c3nc(Nc4cnn(C5CCOCC5)c4)ncc3[C@]2(C)CO1 (single isomer, unassigned) [Example 186]
7.00 to 8.00 | Cc1cc(Nc2ncc3c(n2)N(c2cccc(N4C(=O)OC[C@@H]4C)n2)[C@H]2CC(C)(C)OC[C@@]32C)ccc1[C@H]1CCNC1 (single isomer, unassigned) [Example 266]
7.00 to 8.00 | C[C@H]1COC(=O)N1c1cccc(N2c3nc(Nc4cnn(C5CCN(C)CC5)c4)ncc3[C@]3(C)COC(C)(C)C[C@H]23)n1 (single isomer, unassigned) [Example 242]
7.00 to 8.00 | CN1CCC(n2ccc(Nc3ncc4c(n3)N(c3cccc(N=S(C)(C)=O)n3)[C@@H]3CC(C)(C)OC[C@]43C)n2)CC1 (single isomer, unassigned) [Example 229]
7.00 to 8.00 | CC1(C)C[C@H]2N(c3cccc(N=S(C)(C)=O)n3)c3nc(Nc4cn5ccnc5cn4)ncc3[C@@]2(C)CO1 (single isomer, unassigned) [Example 382]
7.00 to 8.00 | CNCc1ccc(Nc2ncc3c(n2)N(c2cccc(N4C(=O)OC[C@@H]4C)n2)[C@H]2CC(C)(C)OC[C@@]32C)cc1 (single isomer, unassigned) [Example 359]
7.00 to 8.00 | CN1CC(n2cc(Nc3ncc4c(n3)N(c3cccc(N=S(C)(C)=O)n3)[C@H]3CC(C)(C)OC[C@@]43C)cn2)C1 (single isomer, unassigned) [Example 208]
6.00 to 7.00 | CNCc1cccc(N2c3nc(Nc4ccc([C@H]5CC(=O)N(C)C5)cc4)ncc3[C@]3(C)COC(C)(C)C[C@H]23)n1 (single isomer, unassigned) [Example 67]

Same assay, conditions: class symbols; 1 nM Wee1 enzyme, 15 uM ATP, 4 hours at 25° C.

SMILES | pIC50
CNCc1cccc(N2c3nc(Nc4ccc(N5CCOC[C@@H]5C)cc4)ncc3[C@]3(C)COC(C)(C)C[C@H]23)n1 (single isomer, unassigned) [Example 475] | 6.00 to 7.00
CNCc1cccc(N2c3nc(Nc4ccc(-c5cnn(C)c5)nc4)ncc3[C@]3(C)COC(C)(C)C[C@H]23)n1 (single isomer, unassigned) [Example 459] | 6.00 to 7.00
CNCc1cccc(N2c3nc(Nc4ccn(C)c(=O)c4)ncc3[C@]3(C)COC(C)(C)C[C@H]23)n1 (single isomer, unassigned) [Example 455] | ≤ 6.00
CN1CC[C@H]2CN(c3ccc(Nc4ncc5c(n4)N(c4cccc(C(C)(C)O)n4)[C@H]4CC(C)(C)OC[C@@]54C)cc3)C[C@H]21 (single isomer, unassigned) [Example 440] | 7.00 to 8.00
CN1CC[C@H](Oc2ccc(Nc3ncc4c(n3)N(c3cccc(C(C)(C)O)n3)[C@H]3CC(C)(C)OC[C@@]43C)cc2)C1 (single isomer, unassigned) [Example 422] | 7.00 to 8.00

Results, then the molecule that gave them:

pIC50 | SMILES
6.00 to 7.00 | CN1C[C@H]2C[C@@H]1CN2c1ccc(Nc2ncc3c(n2)N(c2cccc(N4CCCC4=O)n2)[C@H]2CC(C)(C)OC[C@@]32C)cc1 [Example 630, 1-(6-((4bS,8aS)-4b,7,7-trimethyl-2-((4-((1R,4R)-5-methyl-2,5-diazabicyclo[2.2.1]heptan-2-yl)phenyl)amino)-4b,7,8,8a-tetrahydropyrano[3′,4′:4,5]pyrrolo[2,3-d]pyrimidin-9(5H)-yl)pyridin-2-yl)pyrrolidin-2-one]
> 8.00 | CC[C@@]1(O)CCc2ccc(N3c4nc(Nc5ccc(N6CCN(C)CC6)cc5)ncc4[C@@]4(C)COC(C)(C)C[C@@H]34)nc21 [Example 787, (R)-7-ethyl-2-((4bR,8aR)-4b,7,7-trimethyl-2-((4-(4-methylpiperazin-1-yl)phenyl)amino)-4b,7,8,8a-tetrahydropyrano[3′,4′:4,5]pyrrolo[2,3-d]pyrimidin-9(5H)-yl)-6,7-dihydro-5H-cyclopenta[b]pyridin-7-ol]
> 8.00 | CN[C@@]1(C)CCc2ccc(N3c4nc(Nc5ccc(N6CCOCC6)cc5)ncc4[C@@]4(C)COC(C)(C)C[C@@H]34)nc21 (single isomer, unassigned) [Example 571]
7.00 to 8.00 | C[C@H]1CCC(=O)N1c1cccc(N2c3nc(Nc4ccc(N5C[C@H]6C[C@@H]5CN6C)cc4)ncc3[C@]3(C)COC(C)(C)C[C@H]23)n1 [Example 656, (S)-5-methyl-1-(6-((4bS,8aS)-4b,7,7-trimethyl-2-((4-((1R,4R)-5-methyl-2,5-diazabicyclo[2.2.1]heptan-2-yl)phenyl)amino)-4b,7,8,8a-tetrahydropyrano[3′,4′:4,5]pyrrolo[2,3-d]pyrimidin-9(5H)-yl)pyridin-2-yl)pyrrolidin-2-one]
> 8.00 | CC[C@@]1(O)CCc2ccc(N3c4nc(Nc5ccc(N6C[C@@H]7C[C@H]6CN7C)cc5)ncc4[C@@]4(C)COC(C)(C)C[C@@H]34)nc21 [Example 792, (R)-7-ethyl-2-((4bR,8aR)-4b,7,7-trimethyl-2-((4-((1S,4S)-5-methyl-2,5-diazabicyclo[2.2.1]heptan-2-yl)phenyl)amino)-4b,7,8,8a-tetrahydropyrano[3′,4′:4,5]pyrrolo[2,3-d]pyrimidin-9(5H)-yl)-6,7-dihydro-5H-cyclopenta[b]pyridin-7-ol]
6.00 to 7.00 | CN1CCC(c2cccc(N3c4nc(Nc5ccc(N6CCOCC6)cc5)ncc4[C@]4(C)COC(C)(C)C[C@H]34)n2)CC1 (single isomer, unassigned) [Example 534]
7.00 to 8.00 | CN1CC[C@H](Oc2ccc(Nc3ncc4c(n3)N(c3cccc(N5CCCC5=O)n3)[C@H]3CC(C)(C)OC[C@@]43C)cc2)C1 [Example 619, 1-(6-((4bS,8aS)-4b,7,7-trimethyl-2-((4-(((S)-1-methylpyrrolidin-3-yl)oxy)phenyl)amino)-4b,7,8,8a-tetrahydropyrano[3′,4′:4,5]pyrrolo[2,3-d]pyrimidin-9(5H)-yl)pyridin-2-yl)pyrrolidin-2-one]
6.00 to 7.00 | Cc1cc(Nc2ncc3c(n2)N(c2cccc([C@H]4CCCN4)n2)[C@H]2CC(C)(C)OC[C@@]32C)ccc1N1CCOCC1 (single isomer, unassigned) [Example 521]
> 8.00 | Cn1ncc(Nc2ncc3c(n2)N(c2cccc(N=S(C)(C)=O)n2)[C@@H]2CC(C)(C)OC[C@]32C)n1 (single isomer, unassigned) [Example 515]
7.00 to 8.00 | CC1(C)C[C@@H]2N(c3cccc(N4CCCC4=O)n3)c3nc(Nc4ccc(C5CNC5)cc4)ncc3[C@]2(C)CO1 [Example 663, 1-(6-((4bS,8aS)-2-((4-(azetidin-3-yl)phenyl)amino)-4b,7,7-trimethyl-4b,7,8,8a-tetrahydropyrano[3′,4′:4,5]pyrrolo[2,3-d]pyrimidin-9(5H)-yl)pyridin-2-yl)pyrrolidin-2-one]
